Results published in publication PMC11783601, “Analogue-Sensitive Inhibition of Histone Demethylases Uncovers Member-Specific Function in Ribosomal Protein Synthesis” (Journal of the American Chemical Society, 2025).

Tests used:
[1] = test system: asKDM4 mutants (KDM4A-F185A, KDM4C-F187A, KDM4D-F189A and KDM4E-F186A); test: Demethylation of extracted full-length histones, Western blot with H3K9me3 antibody; assay type: biochemical, human; conditions: histones extracted from HEK293T cells, 20 µM (Fig S19 legend)
Protocol: We next tested the inhibitory potential of 6 against these proteins using H3K9me3 peptide substrate and analyzed it by MALDI-MS. […] We subsequently examined the ability of asKDM4 variants to demethylate full-length histones extracted from mammalian cells. HEK293T cells were cultured in the presence of 10 μM n-octyl IOX1, a broad-spectrum inhibitor of demethylases,[41],[42] to generate a hypermethylated proteome (Figure S19). The extracted histone was incubated with the as variants individually, each with or without 6, and the extent of demethylation was analyzed by Western blot using the H3K9me3-specific antibody. […]
directly to ice and 2M Ammonium Acetate was added and left on ice for 5 minutes. […]
The supernatant was transferred to a fresh 1.5 mL centrifuge tube, 132 µL of TCA was added dropwise to precipitate the histones and incubated on ice for 30 mins to 1.5 hr. […] 1 µL of histone extracts was loaded on a 15% gel with the BSA standards to quantify the amount of H3 for the assay. […]
(NH4)2Fe(SO4)2, 2 mM L-ascorbic acid and 50 mM Tris pH 8.0 were incubated with or without 150 µM of L-Leu NOG for 5 minutes on ice, after which substrate (300 µM 2OG and 2 µg of Histone extract) was added to the tube. The assay was incubated at 37 °C for 1.5 hours, the samples were analyzed via western blotting using H3K9me3 specific antibody. […]

ALKBH5 = molecular target: T1, ALKBH5 (Homo sapiens, UniProt Q6P6C2); test: MALDI-based assay on m6A RNA substrate; assay type: biochemical; conditions: MALDI-TOF, m6A oligonucleotide
T1 construct: we recombinantly expressed the catalytic domains of 12 wild type dioxygenases; His; made in house; host or cells: E. coli BL21 (DE3)
Protocol: (§1) MALDI-based assay for FTO and ALKBH5: To determine the enzymatic activity of FTO and
(§2) ALKBH5 recombinant proteins in the presence of L-Leu NOG 6, a previously published methods
(§3) were utilized.15, 18 Briefly,10 µM of each protein was incubated in the presence of 10 µM RNA
(§4) 7.5, 150 mM KCl, 50 µM L-Leu NOG or equivalent volume of water in 10 µL aliquots. The
(§5) samples were placed on ice for 10 minutes followed by addition of 200 µM 2OG or equivalent
(§6) volume of water. After incubation at 37 °C for 30 minutes, samples were desalted with 3 µL of BT
(§7) spotted on a MALDI plate with 1uL sample and 1uL of 3-HPA matrix and monitored with Bruker
(§8) FlexControl in the reflectron negative mode and analyzed on Bruker FlexAnalysis software.

FTO = molecular target: T2, FTO (Homo sapiens, UniProt Q9C0B1); test: MALDI-based assay on m6A RNA substrate; assay type: biochemical; conditions: MALDI-TOF, m6A oligonucleotide
T2 construct: we recombinantly expressed the catalytic domains of 12 wild type dioxygenases; His (N); made in house; host or cells: E. coli BL21 (DE3)
Protocol: as §1, §2, §3, §4, §5, §6, §7, §8

T1 sequence (Q6P6C2 67-394 limits assumed): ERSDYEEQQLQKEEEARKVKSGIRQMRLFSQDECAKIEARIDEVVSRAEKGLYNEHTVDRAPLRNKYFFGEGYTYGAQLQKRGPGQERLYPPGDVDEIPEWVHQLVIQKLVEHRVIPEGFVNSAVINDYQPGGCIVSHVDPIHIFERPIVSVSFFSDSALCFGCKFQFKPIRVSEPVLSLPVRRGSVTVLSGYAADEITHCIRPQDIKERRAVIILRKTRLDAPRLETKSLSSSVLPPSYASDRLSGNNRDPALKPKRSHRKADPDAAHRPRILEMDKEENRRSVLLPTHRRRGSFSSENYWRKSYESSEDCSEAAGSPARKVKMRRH
T2 sequence (Q9C0B1 32-327 limits assumed): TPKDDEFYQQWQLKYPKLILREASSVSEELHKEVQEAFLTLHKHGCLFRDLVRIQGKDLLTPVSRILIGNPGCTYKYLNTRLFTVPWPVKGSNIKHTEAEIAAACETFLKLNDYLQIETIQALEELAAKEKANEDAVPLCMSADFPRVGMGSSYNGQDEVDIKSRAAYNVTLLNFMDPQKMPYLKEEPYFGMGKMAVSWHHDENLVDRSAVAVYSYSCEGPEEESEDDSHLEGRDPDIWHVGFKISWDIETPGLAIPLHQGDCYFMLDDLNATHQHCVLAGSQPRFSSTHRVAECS

Compound: CC(C)CC(NC(=O)C(=O)O)C(=O)O (stereo not shown) [compound 6, N-oxalyl leucine]
- inhibition of demethylation of full-length histone H3 by asKDM4 mutants [1]: noticeably inhibited
- inhibition of demethylation of full-length histone H3 by asKDM4 mutants ([1]; listed as NOL 6): inhibits the mutants
- inhibition of ALKBH5 (ALKBH5): No inhibition
- inhibition of FTO (FTO): No inhibition
